Measurements from US20220047617A1, “Nucleic acid nanocarrier drug, preparation method, pharmaceutical composition and use thereof” (BAI YAO ZHI DA (BEIJING) NANOBIO TECHNOLOGY CO., LTD., priority 2018, published 2022).
Like-named read-outs stand apart in the source and are kept apart here. {Biotin} = biotin label attached at strand end

What was measured:
MCF-7 cells [1] = assay: Cytotoxicity in MCF-7 cells (CellTiter 96 AQueous One Solution), Embodiment 33; format: cell-based, human; settings: MCF-7, 96 hours
Method: Cytotoxicity of DNAh-Biotin-EGFRapt-Cy5-Mit Nanoparticles in MCF-7 Cells
(§1) 1) Harvesting cells in a logarithmic growth phase, taking a small amount and staining with trypan blue for counting to ensure that the cell viability reaches more than 98%;
(§2) 2) adjusting the cell density to 2.22×10^4/mL with a growth medium;
(§3) 3) planting 90 μL/well of cell suspension into the 96-well plate, herein the number of cells per well in the plate is 2000;
(§4) 4) placing the planted cell plate in the incubator at 37 DEG C. and incubating overnight;
(§5) 5) performing 3.16-fold gradient dilution on the compound at 9 concentration points;
6) taking out the cell culture plate, and adding 10 μL/well of 10× concentration drug working solution to the corresponding wells of the cell culture plate, herein three replicate holes are made for each concentration, and the final drug action concentration is shown in Table 144 below;
7) placing the cell culture plate in the incubator and continuously incubating for 96 hours […]
(§6) 11) using a microplate reader to read a OD490 value of each well in the cell plate; and […]
(§7) GraphPad Prism 5.0 software is used to process data graphically. […] A calculation formula of the survival rate is as follows, the IC50 may be automatically calculated in GraphPad Prism 5.0. […]

MV4-11 cells [2] = assay: Cytotoxicity in MV4-11 cells (CellTiter 96 AQueous One Solution), Embodiment 25; format: cell-based; settings: MV4-11, 96 hours
Method: as §1
(§8) 2) adjusting the cell density to 1.11×10^5/mL with a growth medium;
(§9) 3) planting 90 μL/well of cell suspension into the 96-well plate, herein the number of cells per well in the plate is 10000;
as §4, §5
6) taking out the cell culture plate, and adding 10 μL/well of 10× concentration drug working solution to the corresponding wells of the cell culture plate, herein three replicate holes are made for each concentration, and the final drug action concentration is shown in Table 124 below;
(§10) 7) placing the cell culture plate in the incubator and continuously incubating for 96 hours; […]
as §6, §7

SKOV3 cells = assay: Cytotoxicity in SKOV3 cells (CellTiter 96 AQueous One Solution), Embodiment 30; format: cell-based; settings: Homo sapiens, SK-OV-3, SKOV3, 96 hours
Method: as §1, §2, §3, §4, §5
(§11) 6) taking out the cell culture plate, and adding 10 μL/well of 10× concentration drug working solution to the corresponding wells of the cell culture plate, herein three replicate holes are made for each concentration, and the final drug action concentration is shown in Table 134 below;
as §10, §6, §7

MCF-7 cells [3] = assay: Cytotoxicity in MCF-7 cells (CellTiter 96 AQueous One Solution), Embodiment 30; format: cell-based; settings: Homo sapiens, MCF7, MCF-7, 96 hours
Method: as §1, §2, §3, §4, §5, §11, §10, §6, §7

HCT116 cells = assay: Cytotoxicity in HCT116 cells (CellTiter-Glo), Embodiment 29; format: cell-based
Method: Cytotoxicity Research of RNAh-Bio-670-Docetaxel Nanoparticles in HCT116 Cells
1) Cell Culturing and Plating
HCT116 cells are cultured at 37 DEG C. and 5% CO2 in the DMEM basal medium in which 10% FBS and 1% PS are respectively added. The cell density used in the experiment is above 80%. The cells are collected, and centrifuged at 1000 rpm for 4 minutes, the medium is resuspended, the cell concentration is adjusted, and it is added to the 96-well plate in a volume of 5000 cells per 90 μL, and each group has 4 replicate wells.
2) Gradient drug concentration preparation and administration
After 24 hours, the compound solution is transferred to each well, 200 nM of each sample per well, and 4 replication wells.
Medium (untreated) control: only cells without compound treatment
Blank control: without cells, used for instrument zero calibration
3) Cell Culture after Administration
4) Cells Treated by Detection Kit
The well plate is brought to a room temperature in advance and stands for 30 minutes. 100 μL of a CellTiter-Glo® reagent is added to each well of the well plate and mixed for 2 minutes on a shaker to promote cell lysis. The Perkin Elmer Envision 2104 Multilabel Reader is used to read values and the values are recorded. […]
The acquired experiment data is analyzed and processed by using excel software, and GraphPad Prism 5 software is used for curve fitting analysis.

MV4-11 cells [4] = assay: Cytotoxicity in MV4-11 cells (CellTiter 96 AQueous One Solution), Embodiment 37; format: cell-based
Method: 9) adding 20 μL/well of the CellTiter 96® AQueous One Solution reagent to the cell culture plate; […]

MCF-7 cells [5] = assay: Cytotoxicity in MCF-7 cells (CellTiter 96 AQueous One Solution), Embodiment 37; format: cell-based, human
Method: Cytotoxicity of DNAh-Biotin-EGFRapt-Cy5-Idarubicin Nanoparticles in MCF-7 and MV4-11 Cells
as §1, §2, §3, §4, §5
6) taking out the cell culture plate, and adding 10 μL/well of 10× concentration drug working solution to the corresponding wells of the cell culture plate, herein three replicate holes are made for each concentration, and the final drug action concentration is shown in Table 154 below;
as §10, §6, §7

RPMI 8226 cells = assay: Cytotoxicity in RPMI 8226 cells (CellTiter 96 AQueous One Solution), Embodiment 21; format: cell-based; settings: Homo sapiens, RPMI 8226, 96 hours
Method: as §1, §8, §9, §4, §5
7) placing the cell culture plate in the incubator and continuously incubating for 96 hours;
8) placing the CellTiter 96® AQueous One Solution reagent at the room temperature and thawing for 90 minutes or thawing in a water bath at 37 DEG C., and placing at the room temperature and equilibrating for 30 minutes;
9) adding 20 μL/well of the CellTiter 96® AQueous One Solution reagent to the cell culture plate;
10) placing the cell culture plate in the incubator at 37 DEG C. and continuously incubating for 3 hours;
11) using a microplate reader to read a OD490 value of each well in the cell plate; and
12) data processing and analysis.
as §7

[6] = TM value detection by solubility curve method (SYBR Green I); format: physicochemical; settings: extension fragment deformation+core short-sequence RNA nanoparticles; temperature at ½ RFUmax in 20 to 90 DEG C. taken as Tm
Method: A solubility curve method is used to detect TM values of the 7 groups of the extension fragment deformation+core short-sequence RNA nanoparticles, and the samples are consistent with the potential samples.
(1) After the sample is diluted with ultrapure water, 5 μg of the diluted sample is mixed with 2 μL of SYBR Green I dye (diluted by 1:200), a final volume is 20 μL, and the dilution concentration is as follows:
(2) It is incubated for 30 min in the dark at a room temperature; and
(3) On-machine detection is performed, a program is set to start at 20 DEG C., the temperature rises per second from 0.1 DEG C. to 95 DEG C., and reading is performed every 5 s.
Due to the particularity of the RNA samples, a temperature corresponding to ½ RFUmax in a range of 20 to 90 DEG C. is used as a sample Tm value in this test.
A solubility curve method is used to detect TM values of the 7 groups of the extension fragment deformation+core short-sequence DNA nanoparticles, and the samples are consistent with the potential samples.

[7] = compared with DNAh targeted fluorescent carrier

With `O=C1c2c(O)ccc(O)c2C(=O)c2c(NCCNCCO)ccc(NCCNCCO)c21` [Mit (mitoxantrone)] the IC50 (MCF-7 cells [1]) was 538 nM.

For `Nc1ccn([C@@H]2O[C@H](CO)[C@@H](O)[C@@H]2O)c(=O)n1` [cytarabine], the IC50 (MV4-11 cells [2]; Homo sapiens) was 1250 nM and the “toxicity to the MV4-11 cells (in words)” value (MV4-11 cells [2]; [7]) was “toxic”.

For `CC(=O)O[C@@]12CO[C@@H]1C[C@H](O)[C@@]1(C)C(=O)[C@H](O)C3=C(C)[C@@H](OC(=O)[C@H](O)[C@@H](NC(=O)OC(C)(C)C)c4ccccc4)C[C@@](O)([C@@H](OC(=O)c4ccccc4)[C@H]21)C3(C)C` [docetaxel], the IC50 (SKOV3 cells; read-out: IC50) was under 1 nM, the IC50 (SKOV3 cells; read-out: IC50 acting on the SKOV3 cells) was under 1 nM and the IC50 (MCF-7 cells [3]; read-out: IC50) was under 1 nM. For the same molecule, the IC50 (MCF-7 cells [3]; read-out: IC50 acting on the MCF-7 cells) was under 1 nM, the cell survival rate (HCT116 cells; HCT116, treatment time 72 h, drug concentration 200 nM) was 10.68% and the inhibition at 0.2 µM (HCT116 cells; Homo sapiens, HCT-116, HCT116, drug concentration 200 nM, 72 hours, read-out: cell inhibition rates) was 50.5%.

With `CC(=O)[C@]1(O)Cc2c(O)c3c(c(O)c2[C@@H](O[C@H]2C[C@H](N)[C@H](O)[C@H](C)O2)C1)C(=O)c1ccccc1C3=O` [idarubicin] the IC50 (MV4-11 cells [4]; Homo sapiens, MV4-11 cell line, 96 hours incubation, CellTiter 96 AQueous One Solution, OD490) was under 1 nM, the “toxicity to the MV4-11 cells (in words)” value (MV4-11 cells [4]; MV4-11, 96 hours, compared with DNAh targeted fluorescent carrier) was “toxic” and the IC50 (MCF-7 cells [5]; Homo sapiens, MCF7, MCF-7 cell line, 96 hours incubation, CellTiter 96 AQueous One Solution, OD490) was 72.5 nM. For the same molecule, the “toxicity to the MCF-7 cells (in words)” value (MCF-7 cells [5]; MCF-7, 96 hours, compared with DNAh targeted fluorescent carrier) was “toxic”.

With `Nc1cccc2c1CN(C1CCC(=O)NC1=O)C2=O` (stereo not shown) [lenalidomide, 3-(7-amino-3-oxo-1H-isoindol-2-yl) piperidine-2,6-dione] the IC50 (RPMI 8226 cells; read-out: IC50) was 72300 nM and the IC50 (RPMI 8226 cells; read-out: IC50 acting on the RPMI 8226 cells) was 72300 nM.

For `O=C1c2c(O)ccc(O)c2C(=O)c2c(NCCNCCO)ccc(NCCNCCO)c21` [mitoxantrone], the “toxicity to the MCF-7 cells (in words)” value (MCF-7 cells [1]; [7]) was “toxic”.

B1: R-21: extension fragment deformation+core short-sequence RNA nanoparticles, strands SEQ ID NO: 138-140, a-strand 3′-biotin, 2′F (nucleic acid)
chain 1: GCGGCGAGCGGCGACGAGCGUUGCGGCCGGAGGCCGG
chain 2: CCGGCCUCCGGCCGCUUCGGCGCCAGCCGCC
chain 3: GGCGGCAGGCGCCCAUAGCCGUCGCCGCUCGCCGC
modifications: RNA nanoparticle strands, 2'-fluoro modified, a-strand 3'-biotin, positions not given here
For B1, the TM value [6] was 65.0 °C.

B2: R-15: extension fragment deformation+core short-sequence RNA nanoparticles, strands SEQ ID NO: 120-122, a-strand 3′-biotin, 2′F (nucleic acid)
chain 1: GCGGCGAGCGGCGAGGAGCGUUGGGGCCGGAGGCCGG
chain 2: CCGGCCUCCGGCCCCUUCGGGGCCAGCCGCC
chain 3: GGCGGCAGGCCCCCAUAGCCCUCGCCGCUCGCCGC
modifications: chain 1: 3' {Biotin}, sugars by position and backbone not given here; chain 2: sugars by position and backbone not given here; chain 3: sugars by position and backbone not given here; RNA nanoparticle, 2'-fluoro modified
Molecule B2 has a TM value [6] of 57.5 °C.

B3: R-18: extension fragment deformation+core short-sequence RNA nanoparticles, strands SEQ ID NO: 129-131, a-strand 3′-biotin, 2′F (nucleic acid)
chain 1: GCGGCGAGCGGCGAGCAGCGUUCGGGCCGGAGGCCGG
chain 2: CCGGCCUCCGGCCCGUUCGGCGCCAGCCGCC
chain 3: GGCGGCAGGCGCCCAUAGCGCUCGCCGCUCGCCGC
modifications: chain 1: 3' {Biotin}, sugars by position and backbone not given here; chain 2: sugars by position and backbone not given here; chain 3: sugars by position and backbone not given here; RNA nanoparticle, 2'-fluoro modified
In the case of B3, the TM value [6] is reported as 54.5 °C.

B4: R-16: extension fragment deformation+core short-sequence RNA nanoparticles, strands SEQ ID NO: 123-125, a-strand 3′-biotin, 2′F (nucleic acid)
chain 1: GCGGCGAGCGGCGAGCAGCGUUCGGGCCGGAGGCCGG
chain 2: CCGGCCUCCGGCCCGUUCGCCGCCAGCCGCC
chain 3: GGCGGCAGGCGGCCAUAGCGCUCGCCGCUCGCCGC
modifications: chain 1: 3' {Biotin}, sugars by position and backbone not given here; chain 2: sugars by position and backbone not given here; chain 3: sugars by position and backbone not given here; RNA nanoparticle, 2'-fluoro modified
In the case of B4, the TM value [6] is reported as 53.8 °C.

B5: R-17: extension fragment deformation+core short-sequence RNA nanoparticles, strands SEQ ID NO: 126-128, a-strand 3′-biotin, 2′F (nucleic acid)
chain 1: GCGGCGAGCGGCGAGGAGCGUUGGGGCCGGAGGCCGG
chain 2: CCGGCCUCCGGCCCCUUCGCCGCCAGCCGCC
chain 3: GGCGGCAGGCGGCCAUAGCCCUCGCCGCUCGCCGC
modifications: chain 1: 3' {Biotin}, sugars by position and backbone not given here; chain 2: sugars by position and backbone not given here; chain 3: sugars by position and backbone not given here; RNA nanoparticle, 2'-fluoro modified
In the case of B5, the TM value [6] is reported as 55.2 °C.

B6: R-19: extension fragment deformation+core short-sequence RNA nanoparticles, strands SEQ ID NO: 132-134, a-strand 3′-biotin, 2′F (nucleic acid)
chain 1: GCGGCGAGCGGCGAGCAGCGUUCGGGCCGGAGGCCGG
chain 2: CCGGCCUCCGGCCCGUUCGGCCCCAGCCGCC
chain 3: GGCGGCAGGGGCCCAUAGCGCUCGCCGCUCGCCGC
modifications: RNA nanoparticle strands, 2'-fluoro modified, a-strand 3'-biotin, positions not given here
For B6, the TM value [6] was 54.0 °C.
